# In patent publication US11976083B2, “Inhibitors of peptidylarginine deiminases” (Gilead Sciences, Inc., priority 2020, dated 2024):
# Target: T1, human PAD4 (Homo sapiens, UniProt Q9UM07)
# T1 construct: human PAD4 (NM_012387), A2-P663, was PCR amplified; His-SUMO (N, cleaved yes); made in house; host or cells: E. coli BL21(DE3)
# Experiment: In vitro PAD4 BAEE biochemical assay
# Details: BAEE substrate 3 mM, 5 nM PAD4, 2 mM calcium chloride; geometric mean of multiple experiments
# Summary of the method: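 Ammonia produced by BAEE deimination (3 mM substrate, 2 h, 25 °C) was read as fluorescent isoindole after o-phthalaldehyde/DTT derivatization, ex 405 nm/em 535 nm. Human PAD4 at 5 nM final, 2 mM calcium, pH 7.6 MOPS; compound preincubated 30 min. IC50s, normalized to BB-Cl-Amidine and DMSO controls, were geometric-mean averaged.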
# T1 sequence (Q9UM07 2-663): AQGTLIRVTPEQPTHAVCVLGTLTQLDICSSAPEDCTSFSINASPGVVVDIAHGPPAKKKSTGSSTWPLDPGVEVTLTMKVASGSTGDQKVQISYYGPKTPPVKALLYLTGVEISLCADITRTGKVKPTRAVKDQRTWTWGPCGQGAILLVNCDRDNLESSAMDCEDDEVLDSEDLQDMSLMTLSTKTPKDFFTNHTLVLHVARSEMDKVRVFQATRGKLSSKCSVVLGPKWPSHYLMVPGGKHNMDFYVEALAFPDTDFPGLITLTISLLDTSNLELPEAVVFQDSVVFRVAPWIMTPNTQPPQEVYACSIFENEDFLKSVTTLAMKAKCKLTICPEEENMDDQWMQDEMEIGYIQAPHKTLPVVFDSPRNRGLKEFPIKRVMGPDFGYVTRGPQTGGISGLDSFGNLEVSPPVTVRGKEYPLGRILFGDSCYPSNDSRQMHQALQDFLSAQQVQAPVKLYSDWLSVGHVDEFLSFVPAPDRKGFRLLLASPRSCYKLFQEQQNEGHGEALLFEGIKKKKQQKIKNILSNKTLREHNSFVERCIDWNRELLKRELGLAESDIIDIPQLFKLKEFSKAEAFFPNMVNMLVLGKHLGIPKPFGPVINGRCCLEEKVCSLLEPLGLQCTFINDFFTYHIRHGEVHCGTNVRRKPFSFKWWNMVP
row,IC50,SMILES
1,303 nM,"COc1cc(C(=O)N2CCC[C@@H](N)C2)cc2nc(-c3cc4ccc5nc4n3CCCCOCC(=O)N3CCC[C@H]53)n(C)c12 [Example 109, (2~{R})-15-[5-[(3~{R})-3-aminopiperidine-1-carbonyl]-7-methoxy-1-methyl-benzimidazol-2-yl]-9-oxa-6,14,20-triazatetracyclo[12.5.2.0^{2,6}.0^{17,21}] henicosa-1(20),15,17(21),18-tetraen-7-one]"
2,123 nM,"COc1cc(C(=O)N2CCC[C@@H](N)C2)cc2nc(-c3cc4ccc5nc4n3CCCC[C@H]3C[C@@H]3C(=O)N[C@@H]5C)n(C)c12 [Example 151, (2~{R},5~{S},7~{S})-13-[5-[(3~{R})-3-aminopiperidine-1-carbonyl]-7-methoxy-1-methyl-benzimidazol-2-yl]-2-methyl-3,12,18-triazatetracyclo[10.5.2.0^{5,7}.0^{15,19}] nonadeca-1(18),13,15(19),16-tetraen-4-one]"
3,34 nM,"COc1cc(C(=O)N2CC[C@@H](O)[C@@H](N)C2)cc2nc(-c3cc4ccc5nc4n3CC(F)(F)CCC[C@@H]3C[C@H]3C(=O)N[C@@H]5C)n(C)c12 [Example 680, (2~{R},5~{R},7~{R})-14-[5-[(3~{S},4~{R})-3-amino-4-hydroxy-piperidine-1-carbonyl]-7-methoxy-1-methyl-benzimidazol-2-yl]-11,11-difluoro-2-methyl-3,13,19-triazatetracyclo[11.5.2.0^ {5,7}.0^{16,20}]icosa-1(19), 14,16(20),17-tetraen-4-one]"
4,27 nM,"COc1cc(C(=O)N2CC[C@@H](OC)[C@@H](N)C2)cc2nc(-c3cc4ccc5nc4n3CC(F)(F)CCC[C@@H]3C[C@H]3C(=O)N(C)[C@@H]5C)n(C)c12 [Example 692, (2~{R},5~{R},7~{R})-14-[5-[(3~{S},4~{R})-3-amino-4-methoxy-piperidine-1-carbonyl]-7-methoxy-1-methyl-benzimidazol-2-yl]-11,11-difluoro-2,3-dimethyl-3,13,19-triazatetracyclo[11.5.2.0^ {5,7}.0^{16,20}]icosa-1(19),14,16(20),17-tetraen-4-one]"
5,150 nM,"COc1cc(C(=O)N2CCC[C@@H](N)C2)cc2nc(-c3cc4ccc5nc4n3CCCCOCCC(=O)N3CCC[C@H]53)n(C)c12 [Example 108, (2~{R})-16-[5-[(3~{R})-3-aminopiperidine-1-carbonyl]-7-methoxy-1-methyl-benzimidazol-2-yl]-10-oxa-6,15,21-triazatetracyclo[13.5.2.0^{2,6}.0^{18,22}] docosa-1(21),16,18(22),19-tetraen-7-one]"

# The remaining lines, values behind:
row,SMILES,IC50
1,"COc1cc(C(=O)N2CC[C@@H](C)[C@@H](N)[C@@H]2C)cc2nc(-c3cc4ccc5nc4n3CC(F)(F)CCC[C@@H]3C[C@H]3C(=O)N[C@@H]5C)n(C)c12 [Example 676, (2~{R},5~{R},7~{R})-14-[5-[(2~{S},3~{R},4~ {R})-3-amino-2,4-dimethyl-piperidine-1-carbonyl]-7-methoxy-1-methyl-benzimidazol-2-yl]-11,11-difluoro-2-methyl-3,13,19-triazatetracyclo[11.5.2.0^ {5,7}.0^{16,20}] icosa-1(19),14,16(20), 17-tetraen-4-one]",83 nM
2,"COc1cc(C(=O)N2CC[C@@H](OC)[C@@H](N)C2)cc2nc(-c3cc4ccc5nc4n3C[C@H]3C[C@H]3CCC[C@](C)(C(F)(F)F)C(=O)N[C@@H]5C)n(C)c12 [Example 370, (3~{S),5~{R},9~{S},12~{R})-18-[5-[(3~{S},4~{R})-3-amino-4-methoxy-piperidine-1-carbonyl]-7-methoxy-1-methyl-benzimidazol-2-yl]-9,12-dimethyl-9-(trifluoromethyl)-1,11,20-triazatetracyclo[11.5.2.0^{3,5}.0^{16,19}] icosa-13(20),14,16(19),17-tetraen-10-one]",163 nM
3,"C[C@H]1NC(=O)[C@@H]2C[C@H]2CCCC(F)(F)Cn2c(-c3nc4cc(C(=O)N5C[C@H](N)[C@@H]6CC[C@H]5C6)c(F)c(F)c4n3C3CC3)cc3ccc1nc32 [Example 466, (2~{R},5~{R},7~{R})-14-[5-[(1~{S),4~{R},5~{R})-4-amino-2-azabicyclo[3.2.1]octane-2-carbonyl]-1-cyclopropyl-6,7-difluoro-benzimidazol-2-yl]-11,11-difluoro-2-methyl-3,13,19-triazatetracyclo[11.5.2.0^{5,7}.0^{16,20}] icosa-1(19),14,16(20),17-tetraen-4-one]",55 nM
4,"COc1cc(C(=O)N2C[C@H](N)[C@@H]3CC[C@H]2C3)cc2nc(-c3cc4ccc5nc4n3CCCCCC[C@](c3ccccn3)(C(F)F)C(=O)N[C@@H]5C)n(C)c12 [Example 889, (8~{R},11~{R})-17-[5-[(1~{S},4~{R},5~{R})-4-amino-2-azabicyclo[3.2.1]octane-2-carbonyl]-7-methoxy-1-methyl-benzimidazol-2-yl]-8-(difluoromethyl)-11-methyl-8-(2-pyridyl)-1,10,19-triazatricyclo [10.5.2.0^{15,18}]nonadeca-12(19),13,15(18),16-tetraen-9-one]",54 nM
5,"COc1cc(C(=O)N[C@H]2CNC[C@H]2F)cc2nc(-c3cc4ccc5nc4n3CCCCCCC(C)(C)C(=O)N[C@@H]5C)n(C)c12 [Example 199, ~{N}-[(3~{S),4~{R})-4-fluoropyrrolidin-3-yl]-7-methoxy-1-methyl-2-[(11~{R})-8,8,11-trimethyl-9-oxo-1,10,19-triazatricyclo[10.5.2.0^{15,18}]nonadeca-12(19),13,15(18),16-tetraen-17-yl]benzimidazole-5-carboxamide]",18400 nM
6,"C[C@H]1NC(=O)[C@@H]2C[C@@]2(F)CCCCCn2c(-c3nc4cc(C(=O)N5C[C@H](N)[C@@H]6CC[C@H]5C6)cc(OC(F)(F)F)c4n3C)cc3ccc1nc32 [Example 715, (2~{R},5~{S},7~{S})-14-[5-[(1~{S},4~{R},5~{R})-4-amino-2-azabicyclo[3.2.1]octane-2-carbonyl]-1-methyl-7-(trifluoromethoxy)benzimidazol-2-yl]-7-fluoro-2-methyl-3,13,19-triazatetracyclo[11.5.2.0^ {5,7}.0^{16,20}]icosa-1(19), 14,16(20),17-tetraen-4-one]",19 nM
7,"CO[C@@H]1CCN(C(=O)c2cc(F)c3c(c2)nc(-c2cc4ccc5nc4n2CCCCCC[C@@H](c2cccc(Cl)n2)C(=O)N[C@@H]5C)n3C2CC2)C[C@@H]1N [Example 873, (8~{S},11~{R})-17-[5-[(3~{S}, 4~{R})-3-amino-4-methoxy-piperidine-1-carbonyl]-1-cyclopropyl-7-fluoro-benzimidazol-2-yl]-8-(6-chloro-2-pyridyl)-11-methyl-1,10,19-triazatricyclo[10.5.2.0^{15,18}] nonadeca-12(19), 13,15(18),16-tetraen-9-one]",120 nM
8,"C[C@H]1NC(=O)[C@@H]2C[C@H]2CCCC(F)(F)Cn2c(-c3nc4cc(C(=O)N5C[C@H](N)[C@@H]6CC[C@H]5C6)ccc4n3C3CC3)cc3ccc1nc32 [Example 914, (2~{R},5~{R},7~{R})-14-[5-[(1~{S},4~{R},5~{R})-4-amino-2-azabicyclo[3.2.1]octane-2-carbonyl]-1-cyclopropyl-benzimidazol-2-yl]-11,11-difluoro-2-methyl-3,13,19-triazatetracyclo[11.5.2.0^ {5,7}.0^{16,20}]icosa-1(19), 14,16(20),17-tetraen-4-one]",16 nM
